The inhibition is the drop in the measured response relative to a control, in per cent. What is called IC50 is the concentration that gives 50% inhibition.

The target in test [1] is T1, Xanthine dehydrogenase/oxidase (Bos taurus, UniProt P80457). The test can be described thus: Inhibition of bovine xanthine oxidase assessed as reduction in uric acid formation at 10 uM using xanthine as substrate pretreated for 5 mins followed by substrate addition measured by UV-vis spectrophotometric method relative to control. Particulars: cattle.
Test [2] has as its target T1, Xanthine dehydrogenase/oxidase. The test can be described thus: Inhibition of bovine xanthine oxidase assessed as reduction in uric acid formation at 1 uM using xanthine as substrate pretreated for 5 mins followed by substrate addition measured by UV-vis spectrophotometric method relative to control. Particulars: cattle.
The target is the same in test [3]. As to the kind of experiment: Inhibition of bovine xanthine oxidase assessed as reduction in uric acid formation using xanthine as substrate pretreated for 5 mins followed by substrate addition measured by UV-vis spectrophotometric method.
Test [4] shares this target. As to the kind of experiment: Inhibition of bovine xanthine oxidase assessed as reduction in uric acid formation at 100 uM using xanthine as substrate pretreated for 5 mins followed by substrate addition measured by UV-vis spectrophotometric method relative to control. The conditions noted are these: cattle.

T1 sequence (P80457 whole entry): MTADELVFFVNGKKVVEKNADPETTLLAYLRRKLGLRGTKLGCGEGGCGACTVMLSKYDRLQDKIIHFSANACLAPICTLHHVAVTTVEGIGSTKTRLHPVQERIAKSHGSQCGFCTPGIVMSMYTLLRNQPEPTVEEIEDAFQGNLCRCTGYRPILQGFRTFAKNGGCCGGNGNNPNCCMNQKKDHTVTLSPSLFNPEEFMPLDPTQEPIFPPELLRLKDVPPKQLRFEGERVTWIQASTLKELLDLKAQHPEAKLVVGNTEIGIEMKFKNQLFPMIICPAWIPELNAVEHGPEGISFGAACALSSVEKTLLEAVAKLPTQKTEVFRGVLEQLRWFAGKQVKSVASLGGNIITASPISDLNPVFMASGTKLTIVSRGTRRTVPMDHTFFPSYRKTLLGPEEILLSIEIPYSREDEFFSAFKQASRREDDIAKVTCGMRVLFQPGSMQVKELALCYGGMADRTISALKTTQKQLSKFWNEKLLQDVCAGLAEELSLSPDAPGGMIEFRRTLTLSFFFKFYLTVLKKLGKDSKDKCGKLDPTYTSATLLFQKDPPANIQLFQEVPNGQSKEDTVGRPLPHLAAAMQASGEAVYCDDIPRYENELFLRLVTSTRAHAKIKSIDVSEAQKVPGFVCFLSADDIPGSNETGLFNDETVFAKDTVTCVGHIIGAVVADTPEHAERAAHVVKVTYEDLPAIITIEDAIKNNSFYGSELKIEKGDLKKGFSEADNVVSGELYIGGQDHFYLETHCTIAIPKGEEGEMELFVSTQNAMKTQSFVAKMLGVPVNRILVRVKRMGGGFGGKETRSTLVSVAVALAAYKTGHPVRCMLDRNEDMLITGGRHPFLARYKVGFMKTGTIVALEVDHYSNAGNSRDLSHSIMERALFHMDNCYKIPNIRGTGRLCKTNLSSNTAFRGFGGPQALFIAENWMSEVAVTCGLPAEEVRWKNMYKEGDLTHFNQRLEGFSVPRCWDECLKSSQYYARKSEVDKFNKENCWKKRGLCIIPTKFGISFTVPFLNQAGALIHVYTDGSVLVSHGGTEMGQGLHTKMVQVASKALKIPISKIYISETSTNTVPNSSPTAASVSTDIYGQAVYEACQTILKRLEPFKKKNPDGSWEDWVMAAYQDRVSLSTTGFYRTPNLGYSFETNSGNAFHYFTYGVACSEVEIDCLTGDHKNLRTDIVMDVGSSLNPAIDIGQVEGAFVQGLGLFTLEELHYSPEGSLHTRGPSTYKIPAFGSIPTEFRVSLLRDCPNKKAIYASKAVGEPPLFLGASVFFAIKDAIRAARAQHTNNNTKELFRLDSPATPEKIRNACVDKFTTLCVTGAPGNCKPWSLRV

For `COc1ccc(Nc2ncnc3c2C(c2ccc(Cl)cc2)C2=C(CCCC2=O)O3)cc1` (stereo not given), the inhibition at 10 µM in test [1] was found to be 34.5%. Besides, the inhibition at 1 µM in test [2] was 22%. In test [3], the IC50 is 55 µM. The inhibition at 100 µM in test [4] was 69.4%.

As to `COc1ccc(Nc2ncnc3c2C(c2ccc(O)c(OC)c2)C2=C(CCCC2=O)O3)cc1` (stereo not given), in test [1], the inhibition at 10 µM was found to be 60%. Besides, the inhibition at 1 µM in test [2] came out at 30.3%. Moreover, the IC50 in test [3] was determined as 7 µM. For the same compound, the inhibition at 100 µM in test [4] was found to be 95%.

Consider `COc1ccc(Nc2ncnc3c2C(c2ccc(O)c(O)c2)C2=C(CCCC2=O)O3)cc1` (stereo not given), for which, in test [1], the inhibition at 10 µM stood at 56.5%. Besides, the inhibition at 1 µM in test [2] worked out at 27.3%. For the same compound, the IC50 in test [3] came out at 8.5 µM. Moreover, the inhibition at 100 µM in test [4] came out at 93.8%.

Consider `COc1ccc(Nc2ncnc3c2C(c2cccc([N+](=O)[O-])c2)C2=C(CCCC2=O)O3)cc1` (stereo not given), for which the inhibition at 10 µM in test [1] is 32.7%. Further, the inhibition at 1 µM in test [2] turned out to be 21.9%. For the same compound, in test [3], the IC50 is 60 µM. The inhibition at 100 µM in test [4] came out at 64.2%.

Take `COc1ccc(Nc2ncnc3c2C(c2cccc(Cl)c2)C2=C(CCCC2=O)O3)cc1` (stereo not given): in test [1], the inhibition at 10 µM is 34.6%. Also, in test [2], the inhibition at 1 µM is 29.2%. In addition, the IC50 in test [3] amounted to 52 µM. Further, in test [4], the inhibition at 100 µM is 70.2%.

For `COc1ccc(Nc2ncnc3c2C(c2cccc(O)c2)C2=C(CCCC2=O)O3)cc1` (stereo not given), the inhibition at 10 µM in test [1] turned out to be 41.2%. For the same compound, the inhibition at 1 µM in test [2] is 29.4%. In addition, in test [3], the IC50 turned out to be 30 µM. The inhibition at 100 µM in test [4] turned out to be 82.3%.

With `COc1ccc(Nc2ncnc3c2C(c2ccc(Br)cc2)C2=C(CCCC2=O)O3)cc1` (stereo not given), the inhibition at 10 µM in test [1] worked out at 33.5%. In addition, in test [2], the inhibition at 1 µM turned out to be 23.1%. Also, the IC50 in test [3] is 58 µM. For the same compound, the inhibition at 100 µM in test [4] stood at 67%.

As for `COc1ccc(Nc2ncnc3c2C(c2cccc(C)c2)C2=C(CCCC2=O)O3)cc1` (stereo not given), the inhibition at 10 µM in test [1] is 40.2%. Besides, the inhibition at 1 µM in test [2] stood at 31%. Also, the IC50 in test [3] is 35 µM. The inhibition at 100 µM in test [4] amounted to 80.5%.

Regarding `COc1ccc(Nc2ncnc3c2C(c2ccc([N+](=O)[O-])cc2)C2=C(CCCC2=O)O3)cc1` (stereo not given), the inhibition at 10 µM in test [1] was determined as 31.5%. In addition, the inhibition at 1 µM in test [2] turned out to be 20%. In test [3], the IC50 is 67 µM. In test [4], the inhibition at 100 µM stood at 63.5%.

On to `COc1ccc(Nc2ncnc3c2C(c2ccc(F)cc2)C2=C(CCCC2=O)O3)cc1` (stereo not given), for which, in test [1], the inhibition at 10 µM is 35.5%. Moreover, the inhibition at 1 µM in test [2] was found to be 27.1%. Further, the IC50 in test [3] amounted to 50 µM. Besides, the inhibition at 100 µM in test [4] is 71.1%.
